According to ChEMBL document CHEMBL5729192, “CD73 inhibitors” (2022):

What follows are molecules tested against 5'-nucleotidase (Homo sapiens, UniProt P21589) (assay: Biochemical Assay: Assay Reaction ConditionsAssay Volume: 70 μlReaction Volume: 50 μlCD73: 0.3208 nMAMP: 15 μMAssay Buffer: 2 5 mM Tris-HCL, pH 7.4, 0.01% Brij-35, 0.01% BSA, 5 mM MgCl2Assay Procedure:Used 384 clear plate.Made dose titration of testing compounds in assay buffer, 10 points ½ log titrations in duplicates starting at 100 μM.Added 25 μl of CD73 to each well for a final concentration of 320 pM.Incubated at RT for 15 min.Added 25 μl of AMP to each well for a final concentration of 15 μM.Incubated at RT for 10 min.Added 10 μl of Malachite Green Reagent A, incubate at RT for 10 min.Added 10 μl of Malachite Green Reagent B, incubate at RT for 45 min.Read the Absorbance on Envision plate reader using excitation filter: Cy5 620 nM.).
5'-nucleotidase, sequence (P21589 whole entry): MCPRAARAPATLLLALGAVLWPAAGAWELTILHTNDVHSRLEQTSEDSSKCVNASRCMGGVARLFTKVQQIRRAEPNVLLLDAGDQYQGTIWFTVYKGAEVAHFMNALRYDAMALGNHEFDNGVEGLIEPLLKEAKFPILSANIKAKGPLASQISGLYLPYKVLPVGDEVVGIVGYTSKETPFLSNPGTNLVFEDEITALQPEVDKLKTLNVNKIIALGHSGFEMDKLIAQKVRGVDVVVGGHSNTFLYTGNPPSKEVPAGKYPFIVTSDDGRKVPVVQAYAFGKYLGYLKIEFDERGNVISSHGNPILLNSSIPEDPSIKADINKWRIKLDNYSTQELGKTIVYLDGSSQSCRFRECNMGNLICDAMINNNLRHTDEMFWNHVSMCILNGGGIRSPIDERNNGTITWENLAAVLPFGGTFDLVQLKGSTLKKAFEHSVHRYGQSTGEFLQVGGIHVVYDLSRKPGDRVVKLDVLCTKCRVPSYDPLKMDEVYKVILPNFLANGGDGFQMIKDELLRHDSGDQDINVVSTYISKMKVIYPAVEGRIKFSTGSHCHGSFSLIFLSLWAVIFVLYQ

IC50	Structure (SMILES)
< 500 nM	C[C@]1(O)C[C@@H](Nc2nc(Cl)nc3c2cnn3[C@@H]2O[C@H](COCP(=O)(O)O)[C@@H](O)[C@H]2O)C1
< 500 nM	O=P(O)(O)COC[C@H]1O[C@@H](n2ncc3c(NCc4cccc(Cl)c4Cl)nc(Cl)nc32)[C@H](O)[C@@H]1O
< 500 nM	CNc1nc(Cl)nc2c1cnn2[C@@H]1O[C@H](COCP(=O)(O)O)[C@@H](O)[C@H]1O
